Assay results: the NIST ThermoML archive (doi:10.1021/je049787p)

Conditions: 101.3 kPa, Liquid; for electrical conductivity: Alternating current cell with electrodes

C=CCn1cc[n+](C)c1.[Cl-] [1-allyl-3-methylimidazolium chloride]
Conditions | electrical conductivity [S/m] | viscosity [mPa·s]
293.15 K | 0.00382 | 66
303.15 K | 0.0044 | 44.7
313.15 K | 0.00501 | 25.3
323.15 K | 0.00562 | 20.6
333.15 K | 0.00624 | 16.2
